Assay results reported in patent US20230405001A1, “TREATMENT OR PREVENTION OF HIV INFECTION” (Janssen Sciences Ireland Unlimited Company, priority 2020, published 2023).

Experiments:
[1] = Plasma kinetics in minipigs over 6 months after single subcutaneous dosing, sequential, admixed or control (Example 2); assay type: in vivo; conditions: minipig, sc, 1830 mg; for AUC(0-t): single s.c. about 1800 mg/6 mL
Description: Nine minipigs with body weights ranging from 17 to 21 kg at the start of the study were used. The minipigs were fasted overnight before dosing. The minipigs were anaesthetized with propofol before dosing. Three minipigs were dosed subcutaneously in the loin with 0.44 mL of the hyaluronidase solution (10,000 U/mL) followed by 1818 mg/6.06 mL of the rilpivirine nanosuspension at the same injection site (treatment group A—sequential).
Three minipigs were dosed subcutaneously in the loin with the 1816 mg/6.5 mL admixed hyaluronidase solution (10,000 U/mL)+rilpivirine suspension (treatment group B— admixed). Three minipigs were dosed subcutaneously in the loin with the 1830 mg/6.1 mL of the control rilpivirine suspension (treatment group C—control). Vetbond 3M surgical sealant was used to seal the injection site to limit any leakage if necessary.
The control rilpivirine suspension was prepared and administered by the following method. • 1. Mix rilpivirine by horizontally shaking the container 30 times over approximately 25 cm within approximately 10 s (a back and forth arm movement=2 times). Ensure well mixed/fully re-suspended. • 2. Flip-off rilpivirine vial flip cap and wipe with isopropyl alcohol wipe. Allow to dry. • 3. Repeat steps 1-2 with a 2nd vial of rilpivirine. If there is a low draw, or unexpected amount of air/settling after draw, a 3rd vial may need to be prepared to ensure the proper dose level can be filled into the syringe. • 4. Attach 18 G transfer needle to 10 mL syringe. • 5. Invert vial and draw>3.2 mL into 10 mL syringe (or as much as can be removed from vial). Injecting 1-2 mL of air will facilitate draw. • Repeat step 5 with the 2nd vial so that at approximately 6.5 mL of drug product is in the 10 mL syringe. Important: see note in (step 3) about preparing a 3rd vial in case of low volume draw. • 6. Detach needle and attach a syringe cap to 10 mL syringe • 7. Wait 5 minutes for bubbles to settle with syringe inverted. • 8. Remove syringe cap, invert syringe prime off air. • 9. Attach a winged infusion set. • 10. Set dose at 6.1 mL after filling infusion set line until liquid forms at tip of needle (0.44 mL undeliverable/dead volume will be in infusion set). • 11. Insert the winged infusion set into the subcutaneous tissue of the target injection site by pinching the skin and inserting the needle at a 30-45 degree angle. • 12. Release the pinch. • 13. Inject over 2 minutes at a constant rate until the syringe plunger bottoms out • 14. Remove the winged infusion set and dispose. • 15. Record any site leakage.
The sequential administration of hyaluronidase solution and then rilpivirine suspension was performed according to the following method. • 1. Flip-off rHuPH20 solution vial flip cap and wipe with isopropyl alcohol wipe. Swirl vial. Allow vial stopper to dry. […]

[2] = Plasma kinetics in minipigs after single subcutaneous dosing, rilpivirine suspension with or without rHuPH20 (Example 1); assay type: in vivo; conditions: minipig
Description: Six minipigs with body weights ranging from 20 to 25 kg at the start of the study were used. The minipigs were fasted overnight before dosing. Three minipigs were dosed subcutaneously in the loin with 0.19 mL of the hyaluronidase solution (10,000 U/mL) followed by 900 mg/3 mL of the rilpivirine nanosuspension at the same injection site (treatment group A). Three minipigs were dosed subcutaneously in the loin with the 900 mg/3 mL of the control rilpivirine suspension (treatment group B—control). The injection volume was 3 mL rilpivirine suspension in both treatment groups. Method—Sequential Administration • 1. Flip-off rHuPH20 solution vial flip cap and wipe with isopropyl alcohol wipe. Allow to dry. Attach an 18 G transfer needle to a 1 mL syringe. • 2. Draw 0.35 mL into the syringe. • 3. Prime the syringe and set liquid level to 0.25 mL in the syringe. • 4. Remove transfer needle and attach syringe cap to 1 mL syringe. • 5. Mix rilpivirine by horizontally shaking the container 30 times over […] approximately 10 s (a back and forth arm movement=2 times). Ensure well mixed/fully re-suspended. • 6. Flip-off rilpivirine vial flip cap and wipe with isopropyl alcohol wipe. Allow to dry. • 7. Attach 18 G transfer needle to 5 mL syringe. • 8. Invert vial and draw>3.2 mL into 5 mL syringe mL (or as much as can be removed from vial). Injecting 1-2 mL of air will facilitate draw. • 9. Detach needle and attach a syringe cap to 5 mL syringe • 10. Invert syringe. Wait 5 minutes for bubbles to settle. • 11. Attach a winged infusion set to the rHuPH20 1 mL syringe. Invert syringe and prime off air so that liquid forms at the tip of the needle. (0.19 mL of rHuPH20 should be in the line) • 12. Insert the winged infusion set into the subcutaneous tissue of the target injection site by pinching the skin and inserting the needle at a 30-45 degree angle. • 13. Release the pinch. • 14. UNSCREW rHuPH20 syringe from infusion set maintaining the needle in the skin. […] It is advisable to have this syringe prepared while the technician is inserting the rHuPH20 infusion line. • 15. Remove the syringe cap from the 5 mL syringe with rilpivirine. Remove air and set the dose at 3.2 mL. • 16. Attach rilpivirine filled syringe to the open end of the infusion set. • 17. […] Plasma samples were analysed individually by means of a validated LC-MS/MS method. Pharmacokinetic Data Analysis • The pharmacokinetic profile of the blood plasma samples was evaluated using non-compartmental pharmacokinetic analysis (using individual Cp vs time profiles). Mean plasma concentrations and PK parameters (Cmax, Tmax, t1/2 and AUC values) were measured and the results are provided in Table 1.

- Cmax ([1]; control group C, single animal, at 7 hours post-administration, read-out: Cmax of the excluded outlier minipig): 563 ng/mL
- Cmax ([1]; single s.c. about 1800 mg/6 mL rilpivirine nanosuspension, N=3, control value excludes an outlier minipig, read-out: Mean Cmax): 49 ng/mL
- AUC(0-t) ([1]; N=3, read-out: Mean AUC0-1 months): 22000 ng·h/mL
- AUC(0-t) ([1]; N=3, read-out: Mean AUC0-6 months): 78300 ng·h/mL
- λz ([2]; single s.c. 900 mg/3 mL, N=3): 0.0009 ± 0.00009 h⁻¹
- Tlast ([2]; single s.c. 900 mg/3 mL, median, N=3): 2160 h
- AUC(0-t) ([2]; plasma, sc, single s.c. 900 mg/3 mL, N=3): 22300 ± 2930 ng·h/mL
- Cmax ([2]; plasma, sc, single s.c. dose in the loin, 900 mg/3 mL rilpivirine suspension, N=3, mean ± SD): 28.5 ± 9.56 ng/mL
SMILES: Cc1cc(/C=C/C#N)cc(C)c1Nc1ccnc(Nc2ccc(C#N)cc2)n1 [Rilpivirine, 4-[[4-[[4-[(1E)-2-cyanoethenyl]-2,6-dimethylphenyl]amino]-2-pyrimidinyl]amino]benzonitrile]
